Read-outs that look alike come from different tables or passages of the source.
Columns and labels:
[1] = tested on: pSer473 Akt in A2780 cells; assay: pSer473 Akt assay to monitor PI3K pathway in A2780 cells (Biological Method 2, MSD); type: cell-based; details: Homo sapiens, inhibition of Akt phosphorylation
Experimental: In this method, an assay for measuring the PI3K-mediated pSer473-Akt status after treatment with representative inhibitor compounds of the invention is described.
A2780 cells were cultured in DMEM supplemented with 10% FBS. L-glutamine, sodium pyruvate, and antibiotics. Cells were plated in the same medium at a density of 15,000 cells per well into 96 well tissue culture plates, with outside wells vacant, and allowed to adhere overnight.
Test compounds supplied in DMSO were diluted further into DMSO at 500 times the desired final concentrations before dilution into culture media to 2 times the final concentrations. Equal volumes of 2× compounds were added to the cells in 96 well plates and incubated at 37° C. for one hour. The media and compounds were then removed, the plates chilled and cells lysed in a lysis buffer (150 mM NaCl, 20 mM Tris pH 7.5, 1 mM EDTA, 1 mM EGTA, 1% Triton X-100) supplemented with phosphatase and protease inhibitors. After thorough mixing, lysates were transferred to both pSer473Akt and total Akt assay plates from Meso Scale Discovery (MSD), and incubated overnight with shaking at 4° C.
The assays were read on a SECTOR Imager 6000 instrument (Meso Scale Discovery). Ratios of the signal from pSer473Akt and total Akt assays were used to correct for any variability and the percent inhibition of pSer473Akt from the total signal seen in cells treated with compound versus DMSO alone was calculated and used to determine EC50 values for each compound.

PI3 kinase alpha = PI3 kinase alpha (Homo sapiens, UniProt P42336); assay: PI3K ATP depletion assay (Biological Method 1, Assay 3; KinaseGlo luminescence); type: biochemical; details: ATP depletion assay, read-out: PI3 Kinase Alpha, IC50
How it was run: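 Compound in DMSO was mixed with 10 nM PI3 kinase and 5 μg/mL phosphatidylinositol, and the reaction was started with 2 μM ATP. It ran to about 50% ATP depletion and was stopped with KinaseGlo.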

[2] = tested on: A2780 ovarian cancer cells; assay: Cellular proliferation in A2780 cells, Cell Titer Glo (Biological Method 4); type: cell-based; details: Homo sapiens
How it was run: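 A2780 cells seeded at 1,000/well in DMEM with 10% FBS, at least 2 h before compound, then exposed 72 h at 37 °C, 5% CO2. Viable cells measured by Cell Titer Glo luminescence; EC50 calculated from duplicate conditions.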

[3] = ovarian cancer cell line A2780, Biological Method 4

Chain of PI3 kinase alpha (P42336 whole entry): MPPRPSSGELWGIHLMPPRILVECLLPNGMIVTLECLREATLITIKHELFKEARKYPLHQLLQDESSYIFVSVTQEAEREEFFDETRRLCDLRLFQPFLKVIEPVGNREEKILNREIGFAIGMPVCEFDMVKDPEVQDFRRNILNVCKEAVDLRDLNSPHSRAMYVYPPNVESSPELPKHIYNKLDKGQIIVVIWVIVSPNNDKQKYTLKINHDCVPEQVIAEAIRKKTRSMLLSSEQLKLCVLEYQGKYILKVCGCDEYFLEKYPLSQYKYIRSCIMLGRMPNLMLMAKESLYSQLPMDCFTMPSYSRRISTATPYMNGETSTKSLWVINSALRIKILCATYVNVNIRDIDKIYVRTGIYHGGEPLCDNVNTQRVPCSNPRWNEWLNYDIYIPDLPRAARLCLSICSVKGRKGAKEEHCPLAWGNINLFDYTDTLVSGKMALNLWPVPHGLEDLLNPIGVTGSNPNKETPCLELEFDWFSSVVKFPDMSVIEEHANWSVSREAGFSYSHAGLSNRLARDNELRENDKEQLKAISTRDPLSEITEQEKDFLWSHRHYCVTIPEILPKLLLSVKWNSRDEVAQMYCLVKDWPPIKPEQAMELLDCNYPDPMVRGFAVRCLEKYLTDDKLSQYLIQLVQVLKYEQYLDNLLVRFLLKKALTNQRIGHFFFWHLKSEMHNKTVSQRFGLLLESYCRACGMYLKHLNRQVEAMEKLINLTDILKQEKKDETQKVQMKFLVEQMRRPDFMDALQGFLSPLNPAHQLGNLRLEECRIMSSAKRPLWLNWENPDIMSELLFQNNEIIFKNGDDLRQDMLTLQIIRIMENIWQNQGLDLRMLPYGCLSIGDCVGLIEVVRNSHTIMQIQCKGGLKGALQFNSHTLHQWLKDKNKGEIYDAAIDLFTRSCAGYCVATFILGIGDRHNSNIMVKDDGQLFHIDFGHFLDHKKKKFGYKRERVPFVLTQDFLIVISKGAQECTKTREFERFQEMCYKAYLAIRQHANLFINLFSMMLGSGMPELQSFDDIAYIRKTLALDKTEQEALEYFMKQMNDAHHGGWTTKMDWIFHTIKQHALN
Chain of PI3 kinase alpha (P27986 whole entry partner): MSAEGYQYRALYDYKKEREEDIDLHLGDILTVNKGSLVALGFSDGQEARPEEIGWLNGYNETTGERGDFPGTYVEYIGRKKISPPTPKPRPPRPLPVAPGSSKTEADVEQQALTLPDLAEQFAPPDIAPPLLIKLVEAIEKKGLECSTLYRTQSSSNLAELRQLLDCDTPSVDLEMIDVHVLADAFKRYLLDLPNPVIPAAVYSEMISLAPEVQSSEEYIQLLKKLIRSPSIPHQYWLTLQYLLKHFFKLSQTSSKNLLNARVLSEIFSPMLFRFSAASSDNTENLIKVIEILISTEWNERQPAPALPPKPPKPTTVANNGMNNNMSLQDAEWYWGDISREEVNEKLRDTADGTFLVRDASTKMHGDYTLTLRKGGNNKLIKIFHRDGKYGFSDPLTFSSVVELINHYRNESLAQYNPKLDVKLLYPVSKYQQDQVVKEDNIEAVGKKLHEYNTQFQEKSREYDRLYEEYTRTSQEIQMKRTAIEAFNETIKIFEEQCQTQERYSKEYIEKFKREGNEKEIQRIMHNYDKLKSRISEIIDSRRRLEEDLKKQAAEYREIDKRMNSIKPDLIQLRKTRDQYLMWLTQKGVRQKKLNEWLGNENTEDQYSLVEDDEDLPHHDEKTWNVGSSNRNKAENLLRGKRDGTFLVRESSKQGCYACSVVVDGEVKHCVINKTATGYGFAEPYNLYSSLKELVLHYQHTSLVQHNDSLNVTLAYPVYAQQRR

EC50 ([1]; A2780 cells) [nM] | IC50 (PI3 kinase alpha) [nM] | EC50 ([2]; ovarian cancer cell line A2780) [nM] | EC50 ([1]; A2780, Biological Method 2) [nM] | IC50 (PI3 kinase alpha; Biological Method 1) [nM] | EC50 [2, 3] [nM] | SMILES
< 1000 | < 1000 | < 1000 | – | – | – | Nc1ncc(-c2cc(Nc3ccc(Oc4cccnc4)nc3)nc(N3CCOCC3)n2)cn1 [Compound 64]
< 1000 | < 1000 | < 10000 | – | – | – | CS(=O)(=O)Nc1ncccc1-c1cc(-c2cnc(N)cc2C(F)(F)F)nc(N2CCOCC2)n1 [Compound 145]
< 1000 | < 1000 | < 10000 | – | – | – | CCN(CC)Cc1cnc(Nc2cc(-c3cnc(N)cc3C(F)(F)F)nc(N3CCOCC3)n2)s1 [Compound 12]
< 1000 | < 1000 | < 1000 | – | – | – | COc1ccc2ncc(Nc3nc(N4CCOCC4)nc(-c4cnc(N)nc4)c3C)cc2c1 [Compound 177]
< 1000 | < 1000 | < 1000 | – | – | – | Nc1ncc(-c2cc(Oc3cccnc3)nc(N3CCOCC3)n2)cn1 [Compound 8]
< 1000 | < 1000 | < 1000 | – | – | – | Nc1ccc(-c2cc(Nc3ccc4ncccc4c3)nc(N3CCOCC3)n2)cn1 [Compound 82]
< 1000 | < 1000 | < 1000 | – | – | – | CN1CCC(Oc2ccc(Nc3cc(-c4cnc(N)nc4)nc(N4CCOCC4)n3)cn2)C1 (stereo not drawn) [Compound 35]
< 1000 | < 1000 | < 1000 | – | – | – | Nc1ncc(-c2cc(-c3cnc(N)nc3C(F)(F)F)nc(N3CCOCC3)n2)c(C(F)(F)F)n1 [Compound 121]
< 1000 | < 1000 | < 10000 | – | – | – | N#Cc1ccc(Nc2cc(-c3ccc(N)nc3)nc(N3CCOCC3)n2)cc1 [Compound 179]
< 1000 | < 1000 | < 1000 | – | – | – | CS(=O)(=O)N1CCC(Oc2cc(-c3cnc(N)[nH]c3=O)nc(N3CCOCC3)n2)CC1 [Compound 58]
< 1000 | < 1000 | < 1000 | – | – | – | CC(C)OC(=O)N1CCC(Oc2cc(-c3cnc(N)[nH]c3=O)nc(N3CCOCC3)n2)CC1 [Compound 32]
< 1000 | < 1000 | < 1000 | – | – | – | Nc1ncc(-c2cc(Nc3ccc(N4CCNCC4)nc3)nc(N3CCOCC3)n2)cn1 [Compound 9]
< 1000 | < 1000 | < 25000 | – | – | – | COc1ccnc(Nc2cc(-c3ccc(N)nc3)nc(N3CCOCC3)n2)c1 [Compound 148]
< 1000 | < 1000 | < 10000 | – | – | – | CC(C)N1CCC(Oc2cncc(-c3cc(-c4cnc(N)cc4C(F)(F)F)nc(N4CCOCC4)n3)c2)CC1 [Compound 79]
< 1000 | < 1000 | < 1000 | – | – | – | Nc1cc(C(F)(F)F)c(-c2cc(Nc3ccc(OC4CCNCC4)nc3)nc(N3CCOCC3)n2)cn1 [Compound 150]
< 1000 | < 1000 | < 10000 | – | – | – | CC(C)OC(=O)N1CCC(Oc2cc(-c3cnc(N)nc3C(F)(F)F)nc(N3CCOCC3)n2)CC1 [Compound 115]
< 1000 | < 1000 | < 1000 | – | – | – | Cc1cc(Nc2cc(-c3cnc(N)nc3N)nc(N3CCOCC3)n2)ccn1 [Compound 53]
< 1000 | < 1000 | < 1000 | – | – | – | CC(=O)N1CCC(Oc2cc(-c3cnc(N)nc3N)nc(N3CCOCC3)n2)CC1 [Compound 99]
< 1000 | < 1000 | < 1000 | – | – | – | COC(=O)N1CCC(Oc2cc(-c3cnc(N)nc3C(F)(F)F)nc(N3CCOCC3)n2)CC1 [Compound 70]
< 1000 | < 1000 | < 1000 | – | – | – | Nc1ncc(-c2cc(Nc3ccc4ncccc4c3)nc(N3CCOCC3)n2)cn1 [Compound 46]
< 1000 | < 1000 | < 1000 | – | – | – | COc1cccc2ncc(Nc3cc(-c4cnc(N)nc4C(F)(F)F)nc(N4CCOCC4)n3)cc12 [Compound 54]
< 1000 | < 1000 | < 10000 | – | – | – | CC(C)N1CC[C@H](Oc2ccc(Nc3cc(-c4cnc(N)cc4C(F)(F)F)nc(N4CCOCC4)n3)cn2)C1 [Compound 188]
< 1000 | < 1000 | < 1000 | – | – | – | CC(=O)N1CCC(Oc2cc(-c3cnc(N)nc3C(F)(F)F)nc(N3CCOCC3)n2)CC1 [Compound 119]
< 1000 | < 1000 | < 1000 | – | – | – | Nc1ncc(-c2cc(Nc3ccncc3)nc(N3CCOCC3)n2)c(C(F)(F)F)n1 [Compound 33]

EC50 ([1]; A2780 cells) [nM] | IC50 (PI3 kinase alpha) [nM] | EC50 ([2]; ovarian cancer cell line A2780) [nM] | EC50 ([1]; A2780, Biological Method 2) [nM] | IC50 (PI3 kinase alpha; Biological Method 1) [nM] | EC50 [2, 3] [nM] | SMILES
< 1000 | < 1000 | < 10000 | – | – | – | N#Cc1cnccc1Nc1cc(-c2ccc(N)nc2)nc(N2CCOCC2)n1 [Compound 191]
< 1000 | < 1000 | < 1000 | – | – | – | Cc1c(Nc2ccc(OC3CCN(C)CC3)nc2)nc(N2CCOCC2)nc1-c1cnc(N)nc1 [Compound 42]
< 1000 | < 1000 | < 10000 | – | – | – | CS(=O)(=O)c1ccc(Nc2cc(-c3cnc(N)cc3C(F)(F)F)nc(N3CCOCC3)n2)cc1 [Compound 173]
< 1000 | < 1000 | < 1000 | – | – | – | N#Cc1cc(N)ncc1-c1cc(OC2CCOCC2)nc(N2CCOCC2)n1 [Compound 118]
< 1000 | < 1000 | < 10000 | – | – | – | CS(=O)(=O)Nc1ccccc1-c1cc(-c2cnc(N)cc2C(F)(F)F)nc(N2CCOCC2)n1 [Compound 159]
– | – | – | < 1000 | < 1000 | < 1000 | COc1cc(N)ncc1-c1cc(Nc2cnc3ccccc3c2)nc(N2CCOCC2)n1 [Compound 200]
< 1000 | < 1000 | < 1000 | – | – | – | COc1cncc(-c2cc(-c3cnc(N)nc3)nc(N3CCOCC3)n2)c1 [Compound 57]
< 1000 | < 1000 | < 10000 | – | – | – | CCOc1cc(Nc2cc(-c3cnc(N)cc3C(F)(F)F)nc(N3CCOCC3)n2)ccn1 [Compound 178]
< 1000 | < 1000 | < 1000 | – | – | – | CC(C)N1CC[C@@H](Oc2ccc(Nc3cc(-c4cnc(N)cc4C(F)(F)F)nc(N4CCOCC4)n3)cn2)C1 [Compound 86]
< 1000 | < 1000 | < 1000 | – | – | – | CS(=O)(=O)c1cccc(-c2cc(-c3cnc(N)nc3C(F)(F)F)nc(N3CCOCC3)n2)c1 [Compound 143]
< 1000 | < 1000 | < 10000 | – | – | – | COC(=O)N1CCC(Oc2cc(-c3cnc(N)cc3C(F)(F)F)nc(N3CCOCC3)n2)CC1 [Compound 117]
< 1000 | < 1000 | < 1000 | – | – | – | CS(=O)(=O)c1cccc(-c2cc(-c3cnc(N)nc3N)nc(N3CCOCC3)n2)c1 [Compound 125]
– | – | – | < 1000 | < 1000 | < 10000 | COc1ccc(Nc2cc(-c3cnc(N)cc3C(F)(F)F)nc(N3CCOCC3)n2)cn1 [Compound 199]
< 1000 | < 1000 | < 1000 | – | – | – | Nc1ncc(-c2cc(Nc3ccncc3C(F)(F)F)nc(N3CCOCC3)n2)c(C(F)(F)F)n1 [Compound 158]
< 1000 | < 1000 | < 1000 | – | – | – | CN1CCN(c2ccc(Nc3cc(-c4cnc(N)nc4)nc(N4CCOCC4)n3)cn2)CC1 [Compound 51]
< 1000 | < 1000 | < 1000 | – | – | – | CC(C)C(=O)N1CCC(Oc2cc(-c3cnc(N)nc3C(F)(F)F)nc(N3CCOCC3)n2)CC1 [Compound 106]
– | – | – | < 10000 | < 1000 | < 10000 | Cc1c(-c2cnc(N)nc2)nc(N2CCOCC2)nc1-c1ccnc(Nc2ncc(-c3ccccc3)s2)c1 [Compound 215]
< 1000 | < 1000 | < 1000 | – | – | – | Cc1c(Nc2ncc(C#N)s2)nc(N2CCOCC2)nc1-c1cnc(N)nc1 [Compound 71]
< 1000 | < 1000 | < 1000 | – | – | – | CS(=O)(=O)Nc1ncccc1-c1cc(-c2cnc(N)cc2Cl)nc(N2CCOCC2)n1 [Compound 170]
< 1000 | < 1000 | < 1000 | – | – | – | COc1ccc2ncc(Nc3cc(-c4cnc(N)nc4C)nc(N4CCOCC4)n3)cc2c1 [Compound 154]
< 1000 | < 1000 | < 1000 | – | – | – | Nc1ccc(-c2cc(-n3ncc4c(N)cccc43)nc(N3CCOCC3)n2)cn1 [Compound 168]
< 1000 | < 1000 | < 10000 | – | – | – | CN1CCC(Oc2ccc(Nc3cc(-c4cnc(N)cc4C(F)(F)F)nc(N4CCOCC4)n3)cn2)CC1 [Compound 116]
< 1000 | < 1000 | < 1000 | – | – | – | CC(C)N1CCC(Oc2ccc(Nc3cc(-c4cnc(N)cc4C(F)(F)F)nc(N4CCOCC4)n3)cn2)C1 (stereo not drawn) [Compound 93]
< 1000 | < 1000 | < 10000 | – | – | – | Nc1ccc(-c2cc(Nc3cccc(-c4cnco4)c3)nc(N3CCOCC3)n2)cn1 [Compound 163]

Source: patent US8217035B2, “Pyrimidine derivatives used as PI-3-kinase inhibitors” (Novartis AG, priority 2006, dated 2012)
